Data from paper PMC11868579 (Nature Communications, 2024).
“And” between values parts separate entries of the source, which are not always exact repeats. Equal values may be shown once.

Assays:
[1] = target: T1, eIF4E minor variant D127N (N127) (Homo sapiens, UniProt P06730, D127N); experiment: Isothermal titration calorimetry, eIF4E minor variant; assay type: binding
T1 construct: made in house; host or cells: E. coli BL21-CodonPlus (DE3)-RIPL
Protocol: ITC experiments were performed on either a MicroCal VP-ITC or a MicroCal Auto-ITC200 at 25 °C in a buffer comprising 50 mM HEPES, 100 mM NaCl, 1 mM TCEP and 5% DMSO at pH 7.5. Typical titrations on the MicroCal VP-ITC were performed using 17 × 16.4 µL injections with a 250 s spacing between each injection and with a stirring speed of 307 rpm. Typical titrations on the MicroCal Auto-ITC200 were performed using 12 × 3 µL injections with a 150 s spacing between each injection and with a stirring speed of 750 rpm. ITC data analyses were performed with Origin 7.0 software using the “One Set of Sites” model.

[2] = system: cap-dependent and cap-independent (IRES) protein synthesis; experiment: Bicistronic protein synthesis reporter in HEK293 cells; assay type: cell-based, human; conditions: for Cap translation, Average / IRES, Average: HEK293, n=3; for Cap translation, Average: cap-dependent luciferase reporter; for IRES, Average: cap-independent luciferase driven by viral IRES
Protocol: Supplementary Fig. 10 Determination of the effects of compound 4 on protein synthesis and viability. a HEK293 cells were transfected with protein synthesis reporter expressing bicistonic mRNA with a cap-dependent luciferase reporter and a cap-independent luciferase driven by a viral IRES. Cells were treated with 1 or 10 µM […]
with compound 4 for 24 hr. […]
(§1) Source data is located in the Supplementary Source Data file

c-Myc-activity = experiment: c-Myc-regulated luciferase reporter in SW620 cells; assay type: cell-based, human; conditions: for c-Myc, Average / CMV, Average: SW620; for c-Myc, Average: c-Myc-regulated firefly luciferase reporter; for CMV, Average: constitutive CMV promoter-regulated renilla luciferase reporter
Protocol: Luminescence was measured using the Dual-glo luciferase assay (mean ± SEM from 3 biological replicates). b SW620 cells were transfected with a c-Myc-regulated firefly luciferase expression reporter or a constitutive CMV promoter-regulated renilla luciferase reporter. Cells were treated for 24 hr with 1 or 10 µM compound 4 or the […] kinase inhibitor AZD8055 as positive control (mean ± SEM from 3 biological replicates). An ordinary one-way ANOVA with Tukey multiple comparisons test was performed comparing c-Myc-regulated firefly luciferase expression or CMV-regulated Renilla luciferase expression following the different treatments. For c-Myc-regulated firefly luciferase expression, all significant p values […]
were <0.0001. […]
as §1

[3] = Human microsomal clearance assay; assay type: in vitro ADME
[4] = assay type: physicochemical
Description: Chrom kinetic Plasma Caco-2 microsomal
Cmpd Chemical MW LogD solubility protein permeability intrinsic
# Structure (Da) (pH binding (Papp x10-6 clearance […]
Supplementary notes Table Physicochemical and in vitro pharmacokinetic properties of compound 4.
Experimental procedures for the measurement of ChromLogD, aqueous solubility, plasma protein binding, Caco2 permeability and microsomal […]
Determination of Chromatographic LogD (ChromLogD7.4)
Chromatographic hydrophobicity index (CHI) values were measured using reversed phase HPLC column (PolymerX RP-1, Phenomenex, UK) with a fast acetonitrile gradient at starting mobile phase of pH = 7.4. CHI values are derived directly from the gradient retention times by using a calibration line obtained for standard compounds.
The CHI value approximates to the volume % organic concentration when the compound elutes. CHI is linearly transformed into ChromLogD7.4 by least-square fitting of experimental CHI values to calculated C logP values for over 20,000 research compounds using the following formula: ChromLogD7.4 = 0.0857CHI-2.001.
(1 picture or pasted object on this page, not shown here)

parent H1299 cells = experiment: MCL1 and growth in parental H1299 cells; assay type: cell-based, human
Protocol: Real time monitoring of cell growth was performed with the IncuCyte ZOOM live cell imaging system (Essen BioSciences, USA). Cells were seeded in 96 well plates (Corning, cat#353072) and treated on the next day. The resulting phase-contrast images were analysed using IncuCyte ZOOM 2018A software and results were expressed as percentage confluency of cells.
After seeding overnight in 6 well plates (Corning, cat#353046), cells were treated with compounds for the indicated times and concentration, harvested and the cell pellet lysed on ice in cell lysis buffer (Cell Signaling, cat#9803), supplemented with 1x Halt^TM protease inhibitor cocktail (Fisher Scientific, cat#78429) and cOmplete^TM protease inhibitor cocktail (Sigma-Aldrich, cat#11836153001) for 1 hr. Protein was quantified using BCA protein kit (Fisher Scientific, cat#23225). Western blot was performed using NuPAGE^TM 4–12% Bis-Tris gels (Fisher Scientific, cat#NP0336BOX) and transferred using the Invitrogen iBLOT^TM gel transfer device system (Fisher Scientific, Cat#IB21001). […] All primary antibodies were diluted (1:1000) in 5% BSA (Sigma-Aldrich, cat#A7906) in 1x TBS and 0.1% Tween 20 (Sigma-Aldrich, cat#P1379), except for vinculin (1:2000) that was diluted in casein blocker (Sigma-Aldrich, cat#1610782). […] Quantitative densitometry analysis of protein bands was performed using Image J v1.53 software.

T1 sequence (P06730 36-217 D127N): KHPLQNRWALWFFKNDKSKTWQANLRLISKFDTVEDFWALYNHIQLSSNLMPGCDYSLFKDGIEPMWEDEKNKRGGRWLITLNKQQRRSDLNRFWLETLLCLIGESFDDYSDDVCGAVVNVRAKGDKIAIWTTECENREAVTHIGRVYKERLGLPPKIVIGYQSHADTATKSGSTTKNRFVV

SMILES | enthalpic contribution DH ([1]; ITC, eIF4E D127N) | entropic penalty -TDS ([1]; ITC, eIF4E D127N) [kcal/mol] | LE (ligand efficiency) ([1]; minor variant D127N) | Kd ([1]; read-out: eIF4E Kd, ITC, minor variant D127N) [nM] | Cap translation, Average ([2]; 1μM) | IRES, Average ([2]; 1μM) | Cap translation, Average ([2]; 10μM) | IRES, Average ([2]; 10μM) | inhibitory activity in dual reporter assay ([2]; HEK293 cells, 1 or 10 µM, 24 hr) | c-Myc, Average (c-Myc-activity; 1μM) | CMV, Average (c-Myc-activity; 1μM) | c-Myc, Average (c-Myc-activity; 10μM) | CMV, Average (c-Myc-activity; 10μM) | activity in c-Myc reporter assay (c-Myc-activity; SW620 cells, 1 or 10 µM, 24 hr) | Human microsomal intrinsic clearance ([3]; 1 µM, 0.25 mg/mL microsomes) [µL/min/mg protein] | clearance in human liver microsomes ([3]; human) | Chrom LogD (pH 7.5) [4] | effect on MCL1 or proliferation in parent cells (parent H1299 cells)
CC[C@H](O[C@H](C)CO)c1ccc(-c2ccccc2F)cc1NCCO [Compound 4] | -12.0 kcal/mol and -12.0 ± 0.5 kcal/mol | 1.4 ± 0.5 | 0.42 (kcal/mol)/heavy atom | 17 | 87.46 | 89.67 | 74.14 | 83.90 | lacked inhibitory activity | 80.09 | 89.27 | 67.68 | 82.92 | showed no activity | 210 | moderate clearance | 4.6 | –
CC[C@H](C(=O)N1CCCC[C@H]1C(=O)O[C@H](CCc1ccc(OC)c(OC)c1)c1ccccc1OCC(=O)NCCCCCCC(=O)N[C@H](C(=O)N1C[C@H](O)C[C@H]1C(=O)N[C@@H](C)c1ccc(-c2scnc2C)cc1)C(C)(C)C)c1cc(OC)c(OC)c(OC)c1 [dTAG^V-1] | – | – | – | – | – | – | – | – | – | – | – | – | – | – | – | – | – | no effect on MCL1 or proliferation
